Laboratory results: patent US12370235B2, “Synthetic, non-natural antimicrobial peptides inspired by Staphylococcus auricularis delta toxin” (University of Saskatchewan, priority 2021, dated 2025)
In brackets after ≈: the same amount, converted by molar mass. Square brackets hold non-standard residues; d marks the D form. Ends that are not written are not given here. Peptide text beside a SMILES is read from it. Orn = NCCC[C@H](N)C(=O)O

Experiments:
S. aureus ATCC 29213 = experiment: MIC, broth dilution; format: cell-based, Staphylococcus aureus; conditions: Table 5; STIP3 variants, highest concentration 100 μg/mL
Outline: (§1)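 Peptides of 95% purity tested as 2-fold dilution series against bacteria diluted to OD 6×10^−4 in cation-adjusted Mueller Hinton broth. Standing cultures incubated overnight at 37° C; MIC is the lowest concentration with no visible growth.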

[1] = tested on: S. aureus ATCC 33592 (MRSA SCCmec type III); experiment: MIC, broth dilution; format: cell-based, Staphylococcus aureus; conditions: Table 5; STIP3 variants, highest concentration 100 μg/mL
Outline: as §1

[2] = tested on: S. aureus ATCC BAA-1683 (MRSA SCCmec type IV); experiment: MIC, broth dilution; format: cell-based, Staphylococcus aureus; conditions: Table 5; STIP3 variants, highest concentration 100 μg/mL
Outline: as §1

[3] = tested on: S. aureus ATCC BAA-2094 (MRSA SCCmec type V); experiment: MIC, broth dilution; format: cell-based, Staphylococcus aureus; conditions: Table 5; STIP3 variants, highest concentration 100 μg/mL
Outline: as §1

[4] = tested on: S. aureus ATCC BAA-2313 (MRSA SCCmec type XI); experiment: MIC, broth dilution; format: cell-based, Staphylococcus aureus; conditions: Table 5; STIP3 variants, highest concentration 100 μg/mL
Outline: as §1

[5] = tested on: S. aureus ATCC BAA-41 (MRSA SCCmec type II); experiment: MIC, broth dilution; format: cell-based, Staphylococcus aureus; conditions: Table 5; STIP3 variants, highest concentration 100 μg/mL
Outline: as §1

[6] = tested on: S. aureus ATCC BAA-42 (MRSA SCCmec type VI); experiment: MIC, broth dilution; format: cell-based, Staphylococcus aureus; conditions: Table 5; STIP3 variants, highest concentration 100 μg/mL
Outline: as §1

[7] = tested on: S. aureus ATCC BAA-44 (MRSA SCCmec type I); experiment: MIC, broth dilution; format: cell-based, Staphylococcus aureus; conditions: Table 5; STIP3 variants, highest concentration 100 μg/mL
Outline: as §1

[8] = tested on: Mannheimia haemolytica ATCC 33393; experiment: MIC, broth dilution; format: cell-based; conditions: Table 11; highest concentration 25 μg/mL
Outline: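 Read-out is the lowest peptide concentration showing no growth after an overnight standing culture at 37 °C. Two-fold serial dilutions of 95%-pure peptide were tested against M. haemolytica ATCC 33393 at OD 6×10^−4 in cation-adjusted MH broth.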

C. albicans MYA-2876 = experiment: MIC, YPD broth; format: cell-based, Candida albicans; conditions: Table 8
Outline: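 Yeast cells were diluted in YPD broth, and 180 μl aliquots were mixed with 20 μl of peptide from 2-fold serial dilutions in flat-bottom 96-well microtitre plates. Wells receiving 20 μl sterile water served as controls. After standing incubation overnight at 37° C, the MIC was taken as the lowest peptide concentration with no visible microbial growth.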

[9] = tested on: Candida duobushaemulonii AR 391; experiment: MIC, YPD broth, CDC and FDA AR Candida isolate panel; format: cell-based; conditions: Table 9 below the line: only 200 or 100 μg/mL tested; values reported as 100 are ≤100 μg/mL
Outline: (§2)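 Two-fold dilutions of each peptide (95% purity) were mixed with yeast suspended in broth of 10 g/L yeast extract, 20 g/L peptone and 20 g/L dextrose at an optical density of […]. Incubation was static, overnight, 37° C.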

[10] = tested on: Candida duobushaemulonii AR 392; experiment: as above; format: cell-based; conditions: Table 9 below the line: only 200 or 100 μg/mL tested; values reported as 100 are ≤100 μg/mL
Outline: as §2

[11] = tested on: Candida duobushaemulonii AR 394; experiment: as above; format: cell-based; conditions: Table 9 below the line: only 200 or 100 μg/mL tested; values reported as 100 are ≤100 μg/mL
Outline: as §2

[12] = tested on: Candida haemulonii AR 393; experiment: as above; format: cell-based; conditions: Table 9 below the line: only 200 or 100 μg/mL tested; values reported as 100 are ≤100 μg/mL
Outline: as §2

[13] = tested on: Candida haemulonii AR 395; experiment: as above; format: cell-based; conditions: Table 9 below the line: only 200 or 100 μg/mL tested; values reported as 100 are ≤100 μg/mL
Outline: as §2

Candida krusei AR 397 = experiment: as above; format: cell-based; conditions: Table 9 below the line: only 200 or 100 μg/mL tested; values reported as 100 are ≤100 μg/mL
Outline: as §2

[14] = tested on: Candida lusitaniae AR 398; experiment: as above; format: cell-based; conditions: Table 9 below the line: only 200 or 100 μg/mL tested; values reported as 100 are ≤100 μg/mL
Outline: as §2

Kodamae ohmeri AR 396 = experiment: as above; format: cell-based; conditions: Table 9 below the line: only 200 or 100 μg/mL tested; values reported as 100 are ≤100 μg/mL
Outline: as §2

[15] = tested on: Saccharomyces cerevisiae AR 399; experiment: as above; format: cell-based; conditions: Table 9 below the line: only 200 or 100 μg/mL tested; values reported as 100 are ≤100 μg/mL
Outline: as §2

[16] = tested on: Saccharomyces cerevisiae AR 400; experiment: as above; format: cell-based; conditions: Table 9 below the line: only 200 or 100 μg/mL tested; values reported as 100 are ≤100 μg/mL
Outline: as §2

## TVGGLVKWILDWVKKFA [STIP3-10, TVGGLVKWILDWVKKFA]
S. aureus ATCC 29213
  MIC S. aureus ATCC 29213: 100 µg/mL
[1]
  MIC S. aureus ATCC 33592 (III): 100 µg/mL
[2]
  MIC S. aureus ATCC BAA 1683 (IV): > (no inhibition was observed at the highest concentration of peptide tested: 100 μg/mL for the STIP3 variants)
[3]
  MIC S. aureus ATCC BAA 2094 (V): 100 µg/mL
[4]
  MIC S. aureus ATCC BAA 2313 (XI): 50 µg/mL
[5]
  MIC S. aureus ATCC BAA 41 (II): 100 µg/mL
[6]
  MIC S. aureus ATCC BAA 42 (VI): 25 µg/mL
[7]
  MIC S. aureus ATCC BAA 44 (I): 200 µg/mL
[8]
  MIC (μg/mL) M. haemolytica: > (> symbol indicates that no inhibition was observed at the highest concentration of peptide tested: 25 μg/mL)
C. albicans MYA-2876
  MIC C. albicans MYA-2876: 50 µg/mL
[9]
  MIC (μg/mL) Candida duobushaemulonii AR 391: > (values below the line were determined using two concentrations of peptide 200 or 100 μg/mL)
[10]
  MIC (μg/mL) Candida duobushaemulonii AR 392: > (values below the line were determined using two concentrations of peptide 200 or 100 μg/mL)
[11]
  MIC (μg/mL) Candida duobushaemulonii AR 394: > (values below the line were determined using two concentrations of peptide 200 or 100 μg/mL)
[12]
  MIC (μg/mL) Candida haemulonii AR 393: > (values below the line were determined using two concentrations of peptide 200 or 100 μg/mL)
[13]
  MIC (μg/mL) Candida haemulonii AR 395: > (values below the line were determined using two concentrations of peptide 200 or 100 μg/mL)
Candida krusei AR 397
  MIC (μg/mL) Candida krusei AR 397: > (values below the line were determined using two concentrations of peptide 200 or 100 μg/mL)
[14]
  MIC (μg/mL) Candida lusitaniae AR 398: > (values below the line were determined using two concentrations of peptide 200 or 100 μg/mL)
Kodamae ohmeri AR 396
  MIC (μg/mL) Kodamae ohmeri AR 396: > (values below the line were determined using two concentrations of peptide 200 or 100 μg/mL)
[15]
  MIC (μg/mL) Saccharomyces cerevisiae AR 399: > (values below the line were determined using two concentrations of peptide 200 or 100 μg/mL)
[16]
  MIC (μg/mL) Saccharomyces cerevisiae AR 400: ≤ 100 µg/mL

## CC[C@H](C)[C@H](NC(=O)[C@H](Cc1c[nH]c2ccccc12)NC(=O)[C@H](CCCN)NC(=O)[C@@H](NC(=O)[C@H](CC(C)C)NC(=O)[C@H](C)NC(=O)[C@H](CCCN)NC(=O)[C@@H](NC(=O)[C@@H](N)[C@@H](C)O)C(C)C)C(C)C)C(=O)N[C@@H](CC(C)C)C(=O)N[C@@H](CCCN)C(=O)N[C@H](C(=O)N[C@H](C(=O)N[C@@H](C)C(=O)N[C@@H](CCCN)C(=O)N[C@@H](Cc1ccccc1)C(=O)N[C@@H](C)C(=O)O)C(C)C)[C@@H](C)O [STIP3-22, TVXALVXWILXTVAXFA] (H-TV[Orn]ALV[Orn]WIL[Orn]TVA[Orn]FA-OH; N-terminus and C-terminus assumed)
S. aureus ATCC 29213
  MIC S. aureus ATCC 29213: 25 µg/mL (≈ 13.4 µM)
[1]
  MIC S. aureus ATCC 33592 (III): 25 µg/mL (≈ 13.4 µM)
[2]
  MIC S. aureus ATCC BAA 1683 (IV): 25 µg/mL (≈ 13.4 µM)
[3]
  MIC S. aureus ATCC BAA 2094 (V): 25 µg/mL (≈ 13.4 µM)
[4]
  MIC S. aureus ATCC BAA 2313 (XI): 100 µg/mL (≈ 53.8 µM)
[5]
  MIC S. aureus ATCC BAA 41 (II): 25 µg/mL (≈ 13.4 µM)
[6]
  MIC S. aureus ATCC BAA 42 (VI): 25 µg/mL (≈ 13.4 µM)
[7]
  MIC S. aureus ATCC BAA 44 (I): 25 µg/mL (≈ 13.4 µM)
[8]
  MIC (μg/mL) M. haemolytica: 6.25 µg/mL (≈ 3.36 µM)
C. albicans MYA-2876
  MIC C. albicans MYA-2876: > (> symbol indicates that no inhibition was observed at the highest concentration of peptide tested: 100 μg/mL)
[9]
  MIC (μg/mL) Candida duobushaemulonii AR 391: > (values below the line were determined using two concentrations of peptide 200 or 100 μg/mL)
[10]
  MIC (μg/mL) Candida duobushaemulonii AR 392: > (values below the line were determined using two concentrations of peptide 200 or 100 μg/mL)
[11]
  MIC (μg/mL) Candida duobushaemulonii AR 394: > (values below the line were determined using two concentrations of peptide 200 or 100 μg/mL)
[12]
  MIC (μg/mL) Candida haemulonii AR 393: > (values below the line were determined using two concentrations of peptide 200 or 100 μg/mL)
[13]
  MIC (μg/mL) Candida haemulonii AR 395: > (values below the line were determined using two concentrations of peptide 200 or 100 μg/mL)
Candida krusei AR 397
  MIC (μg/mL) Candida krusei AR 397: ≤ 100 µg/mL
[14]
  MIC (μg/mL) Candida lusitaniae AR 398: ≤ 100 µg/mL
Kodamae ohmeri AR 396
  MIC (μg/mL) Kodamae ohmeri AR 396: > (values below the line were determined using two concentrations of peptide 200 or 100 μg/mL)
[15]
  MIC (μg/mL) Saccharomyces cerevisiae AR 399: ≤ 100 µg/mL
[16]
  MIC (μg/mL) Saccharomyces cerevisiae AR 400: ≤ 100 µg/mL
